According to PMC7069976, “Improved secretion of glycoproteins using an N-glycan-restricted passport sequence tag recognized by cargo receptor” (Nature Communications, 2020):

Experiments:
Assay type in all cases: cell-based
HCT116 cells = experiment: Intracellular accumulation, western blotting of cell lysates; details: anti-flag western blot, vs EPO-motif
Experimental: Western blots were performed according to methods in previous studies[29],[30]. At 72 h post transfection, the EPO and sFγRIII recombinant proteins were purified with anti-Flag M2 Affinity Gel (Sigma-Aldrich). The gel was washed twice with phosphate-buffered saline, and proteins were eluted with the 3× FLAG tag peptide (Sigma-Aldrich). The purified proteins were subjected to 3–10% gradient sodium dodecyl sulfate-polyacrylamide gel electrophoresis and subsequently transferred to a polyvinylidene difluoride membrane (Millipore, Billerica, MA). After blocking with Blocking One solution (Nacalai Tesque, Kyoto, Japan), the membranes were incubated with monoclonal mouse anti-Flag M2 (Sigma-Aldrich, F1804), anti-human LMAN1 (ERGIC-53) (Proteintech, Tokyo, Japan, 13364), anti-human SDNSF/MCFD2 (R&D System, Minneapolis, MN, MAB2357), and anti-β-actin (Sigma-Aldrich, A2228) antibodies, and then with horseradish peroxidase (HRP)-conjugated secondary antibody [anti-mouse IgG antibody-HRP, GE Healthcare (Piscataway, NJ) and anti-rabbit Ig antibody-HRP, Cell Signaling Technology (Danvers, MA)] in 20 mM Tris-HCl (pH 7.6) containing 150 mM NaCl and 0.05% Tween-20. The protein bands were visualized with Immobilon Western Chemiluminescent HRP substrate solution (Millipore).

ΔMCFD2 HCT116 cells = experiment: EPO secretion level (ELISA) from MCFD2 KO HCT116 cells
Description: (§1) The guide RNAs (gRNAs) flanking the target enhancer regions for ERGIC-53 and MCFD2 were designed using ToolGen’s dRGEN synthesis service (Seoul, South Korea). The target DNA sequences of the gRNAs used in the present study were as follows: for MCFD2 deletion, […], and for ERGIC-53 deletion, […]. The gRNA expression plasmids (pRGEN-U6-sgRNA) were purchased from ToolGen. To generate the KO cells of MCFD2 or ERGIC-53, individual gRNA plasmids and a plasmid-expressing Cas9-green fluorescent protein (GFP) (Addgene, catalog #44719) were transiently transfected into HCT116 cells, which are diploid cells suitable for genome editing using the CRISPR/Cas9 method, in a six-well plate using polyethylenimine “Max” (Polysciences Inc., Warrington, PA) and a Cas9:gRNA molar ratio of 1:5 as described previously. At 48 h post transfection, cells with high GFP expression were identified using fluorescence-activated cell sorting with the BD FACSAria II cell sorter (BD Biosciences, San Jose, CA). For knocking out ERGL in the wild-type and ERGIC-53-KO cells, the Guide-it CRISPR/Cas9 System (green/red) (Takara Bio Inc., Kusatsu, Japan) was used for the cloning and expression of target single gRNAs, whose target ERGL DNA sequences were […] and […]. The two constructed pGuide-it Vectors (green and red) were transiently transfected into HCT116 cells. At 48 h post transfection, cells with high ZsGreen1 and tdTomato expression were identified using fluorescence-activated cell sorting. Sorted cells were plated into individual wells of a 96-well plate and then re-plated as single cells in 6 cm dishes. The deletions in the clones were confirmed by polymerase chain reaction and sequencing analysis (Supplementary Figs. 8, 9, 10, and 11).
(§2) For expression of the FVIII and FV full-length and deletion mutant proteins in mammalian cells, the codon-optimized FVIII and FV genes were inserted into the p3XFLAG-CMV-14 Expression Vector and p3XFLAG-CMV-9 Expression Vector, respectively (Sigma-Aldrich, St. Louis, MO). For the expression of the wild-type and mutated AAT, EPO, and sFγRIIIa in mammalian cells, the corresponding genes (purchased from FASMAC Co., Ltd., Atsuki, Japan) were inserted into the p3XFLAG-CMV-9 Expression Vector (Sigma-Aldrich). […]
(§3) The secreted levels of FVIII and FV antigens in the culture medium were determined with an sandwich enzyme-linked immunosorbent assay (ELISA) method using the VisuLize FVIII Antigen Kit (Affinity Biologicals Inc., Ancaster, ON) and the Asssay Max™ Human Factor V ELISA Kit (ASSAYPRO, MO), respectively. The secreted levels of AAT and EPO antigens in the culture medium were determined with an ELASA method using the anti-AAT antibody (Agilent, Santa Clara, CA) and anti-Flag M2 antibody (Sigma-Aldrich), respectively.

HCT116 cells (WT) = experiment: EPO secretion level (ELISA) from wild-type HCT116 cells; details: for EPO secretion level (Figure 4F): HCT116, alanine substitutions in motif
Description: For expression of the FVIII and FV full-length and deletion mutant proteins in mammalian cells, the codon-optimized FVIII and FV genes were inserted into the p3XFLAG-CMV-14 Expression Vector and p3XFLAG-CMV-9 Expression Vector, respectively (Sigma-Aldrich, St. Louis, MO). For the expression of the wild-type and mutated AAT, EPO, and sFγRIIIa in mammalian cells, the corresponding genes (purchased from FASMAC Co., Ltd., Atsuki, Japan) were inserted into the p3XFLAG-CMV-9 Expression Vector (Sigma-Aldrich).
HCT116 and its mutated cells as well as HEK293T were maintained in Dulbecco’s modified Eagle’s medium (DMEM) supplemented with 10% fetal bovine serum in 5% CO2 at 37 °C. For complementary DNA (cDNA) transfection, cells were grown overnight and transfected using Polyethylenimine “Max” (Polysciences Inc.) as described previously. Expi293F cells (Thermo Fisher Scientific, Waltham, MA) were maintained in Expi293 Expression Medium (Thermo Fisher Scientific) in 5% CO2 at 37 °C on an orbital shaker platform rotating at 125 r.p.m. For cDNA transfection, cells were transfected with the ExpiFectamine 293 Transfection Kit (Thermo Fisher Scientific Inc.). Protein expression was performed in serum-free medium.
as §3

ERGL KO HCT116 cells = experiment: EPO secretion level (ELISA) from ERGL KO HCT116 cells
Description: as §1, §2, §3

[1] = average, n = 3, EPO in wild type = 1

Substance: EPO: recombinant Flag-tagged erythropoietin without motif (Fig. 5 prints EPO for mScarlet-I-EPO)
- intracellular accumulation (HCT116 cells): a higher level of accumulation in the cells
- EPO secretion level (Figure 4D), average (ΔMCFD2 HCT116 cells; [1]): 0.9208
- EPO secretion level (Figure 4D) (ΔMCFD2 HCT116 cells; replicate 1): 0.5997
- EPO secretion level (Figure 4D) (ΔMCFD2 HCT116 cells; replicate 2): 1.0013
- EPO secretion level (Figure 4D) (ΔMCFD2 HCT116 cells; replicate 3): 1.162
- EPO secretion level (Figure 4E), average (HCT116 cells (WT); HCT116, N-glycan-deficient mutants, Average, EPO = 1): 1
- EPO secretion level (Figure 4E) (HCT116 cells (WT); HCT116, N-glycan-deficient mutants, replicate 1): 1.0366
- EPO secretion level (Figure 4E) (HCT116 cells (WT); HCT116, N-glycan-deficient mutants, replicate 2): 1.006
- EPO secretion level (Figure 4E) (HCT116 cells (WT); HCT116, N-glycan-deficient mutants, replicate 3): 0.9333
- EPO secretion level (Figure 4E) (HCT116 cells (WT); HCT116, N-glycan-deficient mutants, replicate 4): 1.024
- EPO secretion level (Figure 4F), average (HCT116 cells (WT); HCT116, alanine substitutions in C-terminal motif, Average, n = 3, EPO = 1): 1
- EPO secretion level (Figure 4F) (HCT116 cells (WT); replicate 1): 1.027
- EPO secretion level (Figure 4F) (HCT116 cells (WT); replicate 2): 1.0473
- EPO secretion level (Figure 4F) (HCT116 cells (WT); replicate 3): 0.9257
- EPO secretion level (Figure 4C), average (HCT116 cells (WT); HCT116, motif position series, average, n = 3 independent transfections, Flag-EPO average = 1): 1
- EPO secretion level (Figure 4C) (HCT116 cells (WT); HCT116, motif position series, replicate 1): 1.0819
- EPO secretion level (Figure 4C) (HCT116 cells (WT); HCT116, motif position series, replicate 2): 0.9754
- EPO secretion level (Figure 4C) (HCT116 cells (WT); HCT116, motif position series, replicate 3): 0.9427
- EPO secretion level (Figure 4D), average (HCT116 cells (WT); Wild type HCT116, KO series, average, n = 3, EPO in wild type = 1): 1
- EPO secretion level (Figure 4D) (HCT116 cells (WT); Wild type HCT116, KO series, replicate 1): 0.9075
- EPO secretion level (Figure 4D) (HCT116 cells (WT); Wild type HCT116, KO series, replicate 2): 1.011
- EPO secretion level (Figure 4D) (HCT116 cells (WT); Wild type HCT116, KO series, replicate 3): 1.081
- EPO secretion level (Figure 4D), average (ERGL KO HCT116 cells; [1]): 0.7808
- EPO secretion level (Figure 4D) (ERGL KO HCT116 cells; replicate 1): 0.6104
- EPO secretion level (Figure 4D) (ERGL KO HCT116 cells; replicate 2): 0.9026
- EPO secretion level (Figure 4D) (ERGL KO HCT116 cells; replicate 3): 0.8293
